Data reported in ChEMBL document CHEMBL5223175, “Discovery of novel 2-oximino-2-indolylacetamide derivatives as potent anticancer agents capable of inducing cell autophagy and ferroptosis” (Bioorg Med Chem, 2023).
The source made the active and inactive calls. No cut-off for these calls is given here.

Tests used:
HeLa = experiment: Antiproliferative activity against human HeLa cells assessed as cell viability at 80 uM incubated for 72 hrs by CCK-8 assay; format: functional; conditions: read-out: Activity
SK-HEP1 = experiment: Antiproliferative activity against human SK-HEP1 cells assessed as cell viability at 80 uM incubated for 72 hrs by CCK-8 assay; format: functional; conditions: read-out: Activity
FaDu = experiment: Antiproliferative activity against human FaDu cells assessed as reduction in cell viability incubated for 72 hrs by CCK-8 assay; format: functional, cell-based
[1] = Antiproliferative activity against human NP69SV40T cells assessed as reduction in cell viability incubated for 72 hrs by CCK-8 assay; format: toxicity, cell-based
5-8F [2] = experiment: Antiproliferative activity against human 5-8F cells assessed as reduction in cell viability at 5 to 40 uM incubated for 48 hrs by CCK-8 assay; format: functional, cell-based; conditions: dose 5-40 µM
5-8F [3] = experiment: Inhibition of colony formation in human 5-8F cells at 10 to 30 uM replaced with fresh medium for every 3 days and measured for 10 to 15 days by Giemsa staining based assay; format: functional, cell-based; conditions: dose 10-30 µM, time 10-15 day
CAL-27 = experiment: Antiproliferative activity against human CAL-27 cells assessed as reduction in Ki67 expression at 10 to 30 uM by Western blotting analysis; format: functional, cell-based; conditions: dose 10-30 µM
5-8F [4] = experiment: Induction of apoptosis in human 5-8F cells assessed as appearance of rounded cells incubated for 48 hrs by microscopic analysis; format: functional, cell-based; conditions: dose 10-30 µM
5-8F [5] = experiment: Induction of apoptosis in human 5-8F cells assessed as appearance of floating cells incubated for 48 hrs by microscopic analysis; format: functional, cell-based; conditions: dose 10-30 µM
5-8F [6] = experiment: Induction of apoptosis in human 5-8F cells at 30 uM incubated for 48 hrs by Annexin V-FITC and PI staining based flow cytometry analysis; format: functional
5-8F [7] = experiment: Induction of apoptosis in human 5-8F cells assessed as downregulation of procaspase-3 expression at 10 to 30 uM incubated for 48 hrs by Western blotting analysis; format: functional, cell-based; conditions: dose 10-30 µM
5-8F [8] = experiment: Induction of apoptosis in human 5-8F cells assessed as downregulation of Bcl-2 expression at 10 to 30 uM incubated for 48 hrs by Western blotting analysis; format: functional, cell-based; conditions: dose 10-30 µM
5-8F [9] = experiment: Induction of apoptosis in human 5-8F cells assessed as upregulation of p53 expression at 10 to 30 uM incubated for 48 hrs by Western blotting analysis; format: functional, cell-based; conditions: dose 10-30 µM
5-8F [10] = experiment: Induction of apoptosis in human 5-8F cells assessed as upregulation of cleaved PARP expression at 10 to 30 uM incubated for 48 hrs by Western blotting analysis; format: functional, cell-based; conditions: dose 10-30 µM
5-8F [11] = experiment: Induction of autophagy in human 5-8F cells assessed as increase in LC3I to LC3II conversion at 10 to 30 uM by Western blotting analysis; format: functional, cell-based; conditions: dose 10-30 µM, time 48.0 hrs
5-8F [12] = experiment: Induction of autophagy in human 5-8F cells assessed as increase in Beclin-1 expression at 10 to 30 uM by Western blotting analysis; format: functional, cell-based; conditions: dose 10-30 µM
5-8F [13] = experiment: Induction of autophagy in human 5-8F cells assessed as decrease in p62 expression at 10 to 30 uM by Western blotting analysis; format: functional, cell-based; conditions: dose 10-30 µM
5-8F [14] = experiment: Induction of ferroptosis in human 5-8F cells assessed as change in mitochondrial morphology at 30 uM incubated for 48 hrs by TEM analysis; format: functional, cell-based
5-8F [15] = experiment: Induction of ferroptosis in human 5-8F cells assessed as appearance of mitochondrial pyknosis at 30 uM incubated for 48 hrs by TEM analysis; format: functional, cell-based
5-8F [16] = experiment: Induction of ferroptosis in human 5-8F cells assessed as appearance of thickened cristae at 30 uM incubated for 48 hrs by TEM analysis; format: functional, cell-based
5-8F [17] = experiment: Induction of ferroptosis in human 5-8F cells assessed as increase in membrane density at 30 uM incubated for 48 hrs by TEM analysis; format: functional, cell-based
5-8F [18] = experiment: Induction of ferroptosis in human 5-8F cells assessed as appearance of vacuoles at 30 uM incubated for 48 hrs by TEM analysis; format: functional, cell-based
5-8F [19] = experiment: Induction of ferroptosis in human 5-8F cells assessed as decrease in GSH level at 10 to 30 uM incubated for 48 hrs by Western blotting analysis; format: functional, cell-based; conditions: dose 10-30 µM
5-8F [20] = experiment: Induction of ferroptosis in human 5-8F cells assessed as decrease in GPx4 expression at 10 to 30 uM incubated for 48 hrs in presence of Fer-1 by Western blotting analysis; format: functional, cell-based; conditions: dose 10-30 µM
5-8F [21] = experiment: Antiproliferative activity against human 5-8F cells assessed as decrease in cell viability at 30 uM incubated for 48 hrs in presence of Fer-1; format: functional, cell-based
5-8F [22] = experiment: Antiproliferative activity against human 5-8F cells assessed as decrease in cell viability at 30 uM incubated for 48 hrs in presence of Era; format: functional, cell-based
5-8F [23] = experiment: Induction of ROS generation in human 5-8F cells at 10 to 30 uM after 48 hrs by DCFH-DA staining based flow cytometry analysis; format: functional, cell-based; conditions: dose 10-30 µM
5-8F [24] = experiment: Induction of ROS generation in human 5-8F cells at 10 to 30 uM after 48 hrs by fluorescence microscopy analysis; format: functional, cell-based; conditions: dose 10-30 µM
5-8F [25] = experiment: Induction of lipid peroxidation in human 5-8F cells at 30 uM after 48 hrs by BODIPY C11 staining based fluorescence microscopy analysis; format: functional, cell-based
5-8F [26] = experiment: Induction of lipid peroxidation in human 5-8F cells at 30 uM after 48 hrs by flow cytometry analysis; format: functional, cell-based
5-8F [27] = experiment: Downregulation of p-ERK1/2 in human 5-8F cells at 10 to 30 uM by Western blotting analysis; format: functional, cell-based; conditions: dose 10-30 µM
5-8F [28] = experiment: Downregulation of STAT3 phosphorylation in human 5-8F cells at 10 to 30 uM incubated for 48 hrs by Western blotting analysis; format: functional, cell-based; conditions: dose 10-30 µM
5-8F [29] = experiment: Antitumor activity against human 5-8F cells xenografted in BALB/c mouse assessed as decrease in tumor weight at 10 to 20 mg/kg, ip administered daily; format: functional, organism-based; conditions: dose 10-20 mg/kg
[30] = Toxicity in BALB/c mouse xenografted with human 5-8F cells assessed as decrease in body weight at 10 to 20 mg/kg, ip administered daily; format: organism-based; conditions: in vivo, dose 10-20 mg/kg
5-8F [31] = experiment: Antitumor activity against human 5-8F cells xenografted in BALB/c mouse assessed as decrease in Ki67 expression at 10 to 20 mg/kg, ip administered daily; format: functional, organism-based; conditions: dose 10-20 mg/kg
5-8F [32] = experiment: Antitumor activity against human 5-8F cells xenografted in BALB/c mouse assessed as decrease in GPx4 expression at 10 to 20 mg/kg, ip administered daily; format: functional, organism-based; conditions: dose 10-20 mg/kg
[33] = Toxicity in BALB/c mouse xenografted with human 5-8F cells assessed as change in lung morphology at 10 to 20 mg/kg, ip administered daily by H and E staining based assay; format: organism-based; conditions: in vivo, dose 10-20 mg/kg
[34] = Toxicity in BALB/c mouse xenografted with human 5-8F cells assessed as change in liver morphology at 10 to 20 mg/kg, ip administered daily by H and E staining based assay; format: organism-based; conditions: in vivo, dose 10-20 mg/kg
[35] = Toxicity in BALB/c mouse xenografted with human 5-8F cells assessed as change in kidney morphology at 10 to 20 mg/kg, ip administered daily by H and E staining based assay; format: organism-based; conditions: in vivo, dose 10-20 mg/kg
[36] = Toxicity in BALB/c mouse xenografted with human 5-8F cells assessed as change in spleen morphology at 10 to 20 mg/kg, ip administered daily by H and E staining based assay; format: organism-based; conditions: in vivo, dose 10-20 mg/kg

Cn1cc(/C(=N\O)C(=O)Nc2ccc(Cl)cc2)c2ccccc21
viability at 80 µM (HeLa): 12.3% | viability at 80 µM (SK-HEP1): 20.9% | IC50 (FaDu): 22.2 µM | IC50 at 72 h [1]: 70.9 µM | Activity (5-8F [2]): Active | inhibition (5-8F [3]): Active | Activity (CAL-27): Active | Activity (5-8F [4]): Dose-Dependent Effect | Activity (5-8F [5]): Dose-Dependent Effect | Activity (5-8F [6]): 29.1% | Activity (5-8F [7]): Active | Activity (5-8F [8]): Active | Activity (5-8F [9]): Active | Activity (5-8F [10]): Active | Activity (5-8F [11]): Active | Activity (5-8F [12]): Active | Activity (5-8F [13]): Active | Activity (5-8F [14]): Active | Activity (5-8F [15]): Active | Activity (5-8F [16]): Active | Activity (5-8F [17]): Active | Activity (5-8F [18]): Active | Activity (5-8F [19]): Active | Activity (5-8F [20]): inactive | Activity (5-8F [21]): inactive | Activity (5-8F [22]): Active | Activity (5-8F [23]): Active | Activity (5-8F [24]): Active | Activity (5-8F [25]): Active | Activity (5-8F [26]): Active | Activity (5-8F [27]): Active | Activity (5-8F [28]): Active | Activity (5-8F [29]): Active | Activity [30]: Non-Toxic | Activity (5-8F [31]): Active | Activity (5-8F [32]): Active | Activity [33]: Non-Toxic | Activity [34]: Non-Toxic | Activity [35]: Non-Toxic | Activity [36]: Non-Toxic
